# Legend:
# Assay type in all cases: cell-based
# DU145 (Prostate Cancer) = assay: Cellular growth inhibition assay (MTT), DU145; details: Homo sapiens, DU-145, Table 1, 40 hr incubation
# Procedure: (§1) For screening purposes, compounds were diluted in 96 well plates at a concentration of 20 μM. Plates were warmed at 37° C. for 30 minutes before assay.
# (§2) K562 (Chronic Myeloid Leukemia), PC3 (Prostate Cancer), and DU145 (Prostate Cancer) were obtained from the American Type Culture Collection (ATCC). K562 was grown in RPMI, with 10% FBS with Glutamx added. DU145 cells were cultured in DMED, with 10% FBS and Glutamx and MEM non-essential amino acids added. PC3 cells were grown in F12K medium, with 10% FBS and Glutamx and MEM non-essential amino acids added. All cells were grown at 37° C. in 5% CO2.
# (§3) Cell suspensions were prepared by harvesting cells from culture. (Cells used in this test should be in later log phase growth and high viability.) Cells were diluted in correct growth medium to 1.1× final concentration (from 50000 cell/mL to 200,000 cell/mL, depending on cell line).
# (§4) Compounds to be tested were added (10 μL, 10× final concentration) to a flat bottom 96-well plate. The cellular suspension (90 μL per well) was added, and the plate incubated for 40 hr at 37° C., 5% CO2. MTT (20 μL per well, 5 mg/mL in PBS) was added and the plates were returned to the incubator for a further 6 hours. Lysis buffer (100 μL per well, 10% SDS, 0.01N HCl) was added and the plate stored in the incubator overnight. The plate was then read at 590 nm.
# PC3 (Prostate Cancer) = assay: Cellular growth inhibition assay (MTT), PC3; details: Table 1, 40 hr incubation
# Procedure: as §1, §2, §3, §4
# [1] = test system: K562 (Chronic Myeloid Leukemia); assay: Cellular growth inhibition assay (MTT), K562; details: Homo sapiens, Table 1, 40 hr incubation
# Procedure: as §1, §2, §3, §4
# [2] = target: T1, TelJak2 (BaF3 TELJAK cells, TEL/Jak2 fusion) (Homo sapiens, UniProt O60674); assay: Cellular growth inhibition assay (MTT), BaF3 TEL:JAK2 cell line; details: Table 1, 40 hr incubation
# T1 construct: The regions encompassing the kinase domain of JAK2 (nucleotides 2994-3914); expressed in transfected cells; host or cells: BaF3 cells bearing the pTET-off plasmid, transfected with pTELJAK2 (pTRE2 vector); the other entry of the earlier key: ETV6 (P41212, Transcription factor ETV6)
# Procedure: as §1
# (§5) The coding region encompassing nucleotides 1-487 of TEL was amplified by PCR using the oligonucleotides 5TEL (5′-GGAGGATCCTGATCTCTCTCGCTGTGAGAC-3′) (SEQ ID NO: 1) and 3TEL (5′-AGGC GTCGACTTCTTCTTGATGGTTCTG-3′) (SEQ ID NO: 2) and U937 mRNA as template. A BamH I site was incorporated into the 5TEL primer, and a Sal I site was incorporated into the 3TEL primer. The regions encompassing the kinase domain of JAK2 (nucleotides 2994-3914; JAK2F 5′-ACGC GTCGACGGTGCCTTTGAAGACCGGGAT-3 (SEQ ID NO: 3); JAK2R 5′-ATAGTTTAGCGGCCGCTCAGAATGAAGGTCATTT-3′) (SEQ ID NO: 4) and JAK3 (nucleotides 2520-3469; JAK3F 5′-GAAGTCGACTATGCCTGCCAAGACCCCACGATCTT-3′ (SEQ ID NO: 5); JAK3R 5′-GGATCTAGACTATGAAAAGGACAGGGAGTGGTGTTT-3′ (SEQ ID NO: 6)) were generated by PCR using Taq DNA polymerase (Gibco/BRL) and U937 mRNA as template. A Sal I site was incorporated into the forward primer of JAK2 and JAK3, a Not I site was incorporated into the JAK2 reverse primer and a Xba I site was added to the reverse primer of JAK3.
# (§6) A TEL/Jak2 fusion was generated by digestion of the TELPCR product with BamH I/Sa1 I, digestion of the JAK2 PCR product with Sa1 I/Not I followed by ligation and subcloning into the mammalian expression Vector pTRE 2 (Clontech) digested with BamH I-Not I (pTELJAK2). For JAK3 Sa1 I/Not I cleaved kinase domain PCR product was ligated with BamH I/Sa1 I cleaved TELproduct followed by ligation into BamH I/Not I cleaved pTRE2 (pTELJAK3).
# (§7) The growth factor dependent myelomonocytic cell line BaF3 bearing the pTET-off plasmid (Clontech) was transfected with either pTELJAK2 or pTELJAK3 and the cells selected for factor independent growth. BaF 3 wild type cells were cultured in DMEM 10% FCS, 10% WEHI 3B conditioned medium. BaF3 TELJAK cells were cultured in DMEM 10% Tet-System Approved FBS (without WEHI 3B conditioned medium).
# as §3, §4
# [3] = target: T2, TelJak3 (BaF3 TELJAK cells, TEL/JAK3 fusion) (Homo sapiens, UniProt P52333); assay: Cellular growth inhibition assay (MTT), BaF3 TEL:JAK3 cell line; details: Table 1, 40 hr incubation
# T2 construct: For JAK3 Sa1 I/Not I cleaved kinase domain PCR product was ligated with BamH I/Sa1 I cleaved TELproduct; expressed in transfected cells; host or cells: BaF3 cells bearing the pTET-off plasmid, transfected with pTELJAK3 (pTRE2 vector); the other entry of the earlier key: ETV6 (P41212, Transcription factor ETV6)
# Procedure: as §1, §5, §6, §7, §3, §4
# T2 sequence (P52333 with tags, fused parts or gaps): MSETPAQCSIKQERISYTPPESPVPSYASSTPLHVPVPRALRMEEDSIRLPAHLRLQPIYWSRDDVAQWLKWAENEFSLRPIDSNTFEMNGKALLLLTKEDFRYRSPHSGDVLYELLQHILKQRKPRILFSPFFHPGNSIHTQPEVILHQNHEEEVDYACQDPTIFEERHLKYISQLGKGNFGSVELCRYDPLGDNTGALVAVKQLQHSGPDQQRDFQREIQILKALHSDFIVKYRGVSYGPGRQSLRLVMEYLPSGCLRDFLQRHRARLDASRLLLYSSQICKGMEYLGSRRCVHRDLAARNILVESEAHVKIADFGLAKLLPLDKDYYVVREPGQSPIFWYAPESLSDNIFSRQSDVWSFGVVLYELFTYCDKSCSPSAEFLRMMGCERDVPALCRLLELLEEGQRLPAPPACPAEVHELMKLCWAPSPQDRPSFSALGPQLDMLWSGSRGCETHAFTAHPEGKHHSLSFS
# T1 sequence (O60674 with tags, fused parts or gaps): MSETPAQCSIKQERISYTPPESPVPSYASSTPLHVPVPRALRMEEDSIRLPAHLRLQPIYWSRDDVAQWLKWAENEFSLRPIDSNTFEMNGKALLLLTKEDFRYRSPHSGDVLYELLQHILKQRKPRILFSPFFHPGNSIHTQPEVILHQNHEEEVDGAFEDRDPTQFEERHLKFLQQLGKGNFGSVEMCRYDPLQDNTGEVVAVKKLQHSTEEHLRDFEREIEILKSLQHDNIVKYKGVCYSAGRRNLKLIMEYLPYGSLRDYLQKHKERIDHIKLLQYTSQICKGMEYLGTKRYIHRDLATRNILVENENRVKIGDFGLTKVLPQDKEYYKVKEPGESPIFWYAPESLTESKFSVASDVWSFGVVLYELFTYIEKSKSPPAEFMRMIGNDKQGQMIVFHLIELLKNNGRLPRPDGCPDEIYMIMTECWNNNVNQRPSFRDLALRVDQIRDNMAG
Structure (SMILES),inhibition at 20 µM (DU145 (Prostate Cancer)),inhibition at 20 µM (PC3 (Prostate Cancer)),inhibition at 20 µM [1],inhibition at 20 µM [2],inhibition at 20 µM [3]
CCCC(Nc1cncc(-c2ccc(C(=O)NCCCN3CCOCC3)cc2)n1)c1ccccc1 (stereo not drawn),< 50%,< 50%,< 50%,> 50%,> 50%
COc1cc(-c2nc(N[C@H](C)c3ccccc3)nnc2C)cc(OC)c1OC,< 50%,< 50%,< 50%,> 50%,> 50%
CCCC(Nc1cncc(-c2ccc(NC(=O)NCC)cc2)n1)c1cccnc1 (stereo not drawn),< 50%,< 50%,> 50%,> 50%,> 50%
CCCC(Nc1cncc(-c2ccc(C(=O)NCCN(C)C)cc2)n1)c1ccccc1 (stereo not drawn),< 50%,< 50%,< 50%,> 50%,> 50%
CCCC(Nc1cncc(-c2ccc(CN3CCC(O)CC3)cc2)n1)c1ccccc1 (stereo not drawn),< 50%,< 50%,> 50%,> 50%,> 50%
COc1cc(-c2nc(N[C@H](C)c3ccccc3)nnc2C)ccc1O,< 50%,< 50%,> 50%,> 50%,> 50%
CCCC(Nc1cncc(-c2ccc(CN3CCN(C)CC3)cc2)n1)c1ccccc1 (stereo not drawn),< 50%,< 50%,< 50%,> 50%,> 50%
CCC[C@H](Nc1cncc(-c2ccc(NC(=O)CN(C)C)c(OC)c2)n1)c1cccnc1,> 50%,> 50%,> 50%,> 50%,> 50%
CCCC(Nc1cncc(-c2ccc(CN3CCOCC3)cc2)n1)c1ccccc1 (stereo not drawn),< 50%,< 50%,< 50%,> 50%,< 50%
CCCC(Nc1cncc(-c2ccc(CO)c(OC)c2)n1)c1cccnc1 (stereo not drawn),< 50%,< 50%,> 50%,> 50%,> 50%
CCCC(Nc1cncc(-c2ccc(CNC(=O)C3CCC(=O)N3)cc2)n1)c1ccccc1 (stereo not drawn),< 50%,< 50%,> 50%,> 50%,> 50%
CCCC(Nc1cncc(-c2ccc(OCCCN3CCOCC3)c(OC)c2)n1)c1cccnc1 (stereo not drawn),< 50%,< 50%,< 50%,> 50%,> 50%
CCCC(Nc1cncc(-c2ccc(C(=O)NCCCN(CC)CC)cc2)n1)c1ccccc1 (stereo not drawn),> 50%,< 50%,> 50%,> 50%,> 50%
CCCC(Nc1cncc(-c2ccc(OCCCN3CCOCC3)c(OC)c2)n1)c1ccccc1 (stereo not drawn),< 50%,> 50%,> 50%,> 50%,> 50%
CCCC(Nc1cncc(-c2ccc(NC(=O)c3cccnc3)c(OC)c2)n1)c1cccnc1 (stereo not drawn),< 50%,< 50%,> 50%,> 50%,> 50%
CCCC(Nc1cncc(-c2ccc(NC(=O)NCCCN(CC)CC)c(OC)c2)n1)c1cccnc1 (stereo not drawn),< 50%,< 50%,< 50%,> 50%,> 50%
CCCC(Nc1cncc(-c2ccc(CN3CCCCC3)cc2)n1)c1ccccc1 (stereo not drawn),< 50%,< 50%,< 50%,> 50%,> 50%
CCCC(Nc1cncc(-c2ccc(NC(=O)N3CCN(C)CC3)c(OC)c2)n1)c1cccnc1 (stereo not drawn),< 50%,> 50%,< 50%,> 50%,> 50%
CCCC(Nc1cncc(-c2cc(OC)c(OC)c(OC)c2)c1)c1ccccc1 (stereo not drawn),< 50%,> 50%,> 50%,> 50%,> 50%
CCCC(Nc1cncc(-c2ccc(NC(=O)C3CCNCC3)c(OC)c2)n1)c1cccnc1 (stereo not drawn),< 50%,< 50%,> 50%,> 50%,< 50%
CCCC(Nc1cncc(-c2ccc(CN(C)C)cc2)n1)c1ccccc1 (stereo not drawn),< 50%,< 50%,> 50%,> 50%,> 50%
CCCC(Nc1cncc(-c2ccc(C(=O)N3CCN(C)CC3)cc2)n1)c1ccccc1 (stereo not drawn),,< 50%,< 50%,> 50%,> 50%
CCNC(=O)Nc1ccc(-c2cncc(NC(C)c3cccnc3)n2)cc1OC (stereo not drawn),,< 50%,,> 50%,> 50%
CCCC(Nc1cncc(-c2ccc(C(=O)N3CCOCC3)cc2)n1)c1ccccc1 (stereo not drawn),,< 50%,< 50%,> 50%,> 50%
COc1cc(-c2ncc(C)c(NC(CCO)c3ccccc3)n2)ccc1O (stereo not drawn),> 50%,< 50%,> 50%,> 50%,> 50%
CCCC(Nc1cncc(-c2ccc(OCCCN3CCN(C)CC3)c(OC)c2)n1)c1cccnc1 (stereo not drawn),< 50%,< 50%,< 50%,> 50%,> 50%
CCCC(Nc1cncc(-c2ccc(CN3CCC[C@H]3CO)cc2)n1)c1ccccc1 (stereo partly drawn),< 50%,< 50%,> 50%,> 50%,> 50%
CCCC(Nc1cncc(-c2ccc(OCCCCN3CCOCC3)c(OC)c2)n1)c1ccccc1 (stereo not drawn),< 50%,< 50%,> 50%,> 50%,> 50%
CCCC(Nc1cncc(-c2ccc(OCCCN3CCCC3)c(OC)c2)n1)c1cccnc1 (stereo not drawn),< 50%,< 50%,> 50%,> 50%,> 50%
